# In US11945794B2, “Nuclear transport modulators and uses thereof” (Karyopharm Therapeutics Inc., priority 2013, dated 2024):
# Key:
# 3T3 cells = test: MTT cell proliferation assay; type: cell-based; settings: Mus musculus, NIH3T3, approximately 64-72 hours
# Method in brief: (§1)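 Cells seeded at 5,000-10,000 per well attached overnight, then received eight compound concentrations from 1 nM to 30 μM. Viability was measured by MTT (about 4 h) with OD read at 490 nm. Percent inhibition versus negative control, mostly from duplicates, was reported as mean±SE.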
# Z138 cells = test: MTT cell proliferation assay; type: cell-based; settings: Homo sapiens, Z-138, approximately 64-72 hours
# Method in brief: as §1
# MM1S cells = test: MTT cell proliferation assay; type: cell-based; settings: Homo sapiens, MM1.S, approximately 64-72 hours
# Method in brief: as §1
# [1] = system: anti-collagen antibody-induced arthritis; test: Collagen antibody-induced arthritis (CAIA) mouse model; type: in vivo
# Experimental: On study Day 0 (study commencement), all mice were subjected to a 4 mg intravenous injection of ArthritoMAb™ antibody cocktail (MD Biosciences #51306001), followed by an intraperitoneal injection of LPS (50 μg/mouse) on study Day 3. The mice began treatment on Day 6, when the average clinical scores reached 2.
# The animals were examined for signs of arthritis on study Day 0 in all paws (front left and right paws, hind left and right paws). The signs of arthritis on study Day 0 served as a baseline for the arthritis clinical score parameter. Arthritic responses were examined daily from Day 3 until Day 8, and on Days 10, 12, 15 and 18 (study termination).
# Clinical signs data are presented as means±SEM (standard error of the mean). Treatment groups 2-3 were compared to vehicle group 1 using one-way ANOVA test followed by Tukey post-test. A p value of <0.05 is considered to represent a significant difference.
# U87MG spheroids = test: Glioblastoma spheroid assay; type: cell-based; settings: 1 μM, U87MG spheroids in Matrigel, compared with control
# Experimental: (§2) Cells (U87MG and U251MG) were detached and re-suspended at 1×10^5 cells/mL. 5,000 cells were loaded into a hanging drop plate (3D Biomatrix Cat. No.: HDP1096) and incubated for 5 days (37° C.; 5% CO2) to form spheroids. 300 μL of Matrix Gel (Corning Matrigel Cat #354234; Lot #3330622) were plated per well in a 24-well plate and incubated for 30 minutes. Spheroids were removed from the hanging drop plate and seeded into the […]™ (1 spheroid per well). Spheroids were incubated for 15 minutes and then 460 μL media was added. […] The plates were analyzed at several time points using 40× and 20× phase microscopes, and photos of the spheroids were taken.
# U251MG spheroids = test: Glioblastoma spheroid assay; type: cell-based; settings: 1 μM, U251MG spheroids in Matrigel, compared with control
# Experimental: as §2
# XPO1 = target: T1, XPO1 (Homo sapiens, UniProt O14980); test: XPO1 degradation assay in HT1080 cells (Western blot); type: cell-based; settings: five concentrations, 24 hours
# T1 construct: endogenous in cells; host or cells: HT1080 (fibrosarcoma) cells
# T1 sequence (O14980 whole entry): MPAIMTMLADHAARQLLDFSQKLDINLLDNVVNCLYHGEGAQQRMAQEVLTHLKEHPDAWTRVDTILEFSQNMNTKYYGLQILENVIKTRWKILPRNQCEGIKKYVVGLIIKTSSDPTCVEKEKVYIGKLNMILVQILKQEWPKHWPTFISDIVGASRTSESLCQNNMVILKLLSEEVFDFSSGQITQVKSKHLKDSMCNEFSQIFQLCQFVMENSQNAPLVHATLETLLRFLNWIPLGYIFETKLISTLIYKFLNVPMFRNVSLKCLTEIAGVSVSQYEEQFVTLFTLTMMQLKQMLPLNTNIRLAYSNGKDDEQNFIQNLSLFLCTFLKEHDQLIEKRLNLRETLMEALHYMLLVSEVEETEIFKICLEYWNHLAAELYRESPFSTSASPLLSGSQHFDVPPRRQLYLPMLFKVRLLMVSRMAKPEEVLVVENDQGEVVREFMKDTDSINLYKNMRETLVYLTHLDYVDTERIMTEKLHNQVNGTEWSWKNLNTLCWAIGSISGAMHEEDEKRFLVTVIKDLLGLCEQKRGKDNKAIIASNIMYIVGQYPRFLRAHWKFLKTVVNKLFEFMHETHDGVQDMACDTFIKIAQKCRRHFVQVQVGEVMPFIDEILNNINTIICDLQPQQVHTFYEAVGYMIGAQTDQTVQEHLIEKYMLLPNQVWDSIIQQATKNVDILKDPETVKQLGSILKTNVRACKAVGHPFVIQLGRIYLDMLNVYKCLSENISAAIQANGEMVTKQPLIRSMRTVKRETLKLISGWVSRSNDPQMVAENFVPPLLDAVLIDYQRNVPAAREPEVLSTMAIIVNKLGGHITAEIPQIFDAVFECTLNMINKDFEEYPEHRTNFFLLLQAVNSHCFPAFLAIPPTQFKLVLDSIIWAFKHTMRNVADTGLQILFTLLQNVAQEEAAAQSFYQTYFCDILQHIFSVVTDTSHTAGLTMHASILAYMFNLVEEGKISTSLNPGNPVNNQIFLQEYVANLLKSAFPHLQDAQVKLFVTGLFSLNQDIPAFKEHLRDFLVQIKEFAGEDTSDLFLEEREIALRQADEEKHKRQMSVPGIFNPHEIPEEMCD
# Excerpt: Western blot analysis of cellular lysates of the treated cells was used to determine the protein expression of XPO1. Beta-actin was used as a loading control.
# MOLT 4 xenograft = test: MOLT 4 acute lymphoblastic leukemia xenograft model; type: in vivo, mouse; settings: 5 or 15 mg/kg PO daily, SCID mice, compared to vehicle
# Experimental: MOLT 4 (CRL-1582) acute lymphoblastic leukemia cells were obtained from ATCC. These cells were grown in RPMI-1640 medium supplemented with 10% fetal bovine serum, 1% penicillin and streptomycin. Cells were sub-cultured by transferring floating cells to a new flask and trypsinizing adherent cells before subculturing at a ratio of 1:4. MOLT 4 cells were harvested by centrifugation and counted using a hemocytometer. Cells were resuspended in PBS at a concentration of 5×10^7 cells per mL. Cells were placed on ice, and then mixed with an equal volume of Matrigel™ (BD Biosciences CB-40234). This mixture was kept on ice and injected into the left flank of mice in a volume of 0.2 mL, equivalent to 5×10^6 cells per mouse. Thirty-two (32) SCID mice were inoculated subcutaneously in the left flank with 5×10^6 MOLT 4 cells. Treatment was initiated when the tumors reached a mean volume of 106.5 mm^3 (standard deviation±33.9 mm^3, CV 31.9%, range 43-181 mm^3). Mice were allocated to four (4) groups of eight (8) mice, […], such that mean tumor volume in each group was within the range of 102 to 111 mm^3. […] With the exception of doxorubicin (which was given IP), all compounds were given by oral gavage. […] Animal weights and conditions were recorded daily, and tumors were measured on Mondays, Wednesdays and Fridays.
# mutant CRM1-Cys528Ser = target: T2, mutant CRM1-Cys528Ser (Homo sapiens, UniProt O14980, C528S); test: Cys 528 mutation assay, Rev-GFP localization; type: cell-based; settings: 30 μM, U2OS Rev-GFP cells
# T2 construct: expressed in transfected cells; host or cells: U2OS (osteosarcoma) cells stably expressing Rev-GFP
# T2 sequence (O14980 whole entry C528S): as the sequence (O14980 whole entry) above, with C528S counted along it
# Experimental: (§3) U2OS (osteosarcoma) cells stably expressing GFP-tagged HIV-Rev fused to the cAMP-dependent protein kinase inhibitor (PM) nuclear export signal (Rev-GFP) were transiently transfected with constructs expressing wild-type CRM1 or mutant CRM1-Cys528Ser for 36 hours. The transient transfection efficiency in the experiment was estimated to be 50%.
# wild-type CRM1 = target: T3, wild-type CRM1 (Homo sapiens, UniProt O14980); test: Cys 528 mutation assay, Rev-GFP localization; type: cell-based; settings: 30 μM, 4 hours, U2OS Rev-GFP cells
# T3 construct: expressed in transfected cells; host or cells: U2OS (osteosarcoma) cells stably expressing Rev-GFP
# T3 sequence (O14980 whole entry, species assumed): as the sequence (O14980 whole entry) above
# Experimental: as §3
smiles,measurement,setting,value
"NC(=O)/C(=C/n1cnc(-c2cc(C(F)(F)F)cc(C(F)(F)F)c2)n1)c1cncnc1 [Compound 124, (E)-3-(3-(3,5-bis(trifluoromethyl)phenyl)-1H-1,2,4-triazol-1-yl)-2-(pyrimidin-5-yl)acrylamide]",IC50,3T3 cells,5 to 30 µM
same,IC50,Z138 cells,< 0.1 µM
same,IC50,MM1S cells,< 0.1 µM
same,percentage of animals that showed clinical signs of arthritis,"[1]; 20 mg/kg PO twice a week, study Day 6 (start of treatment)",78%
same,percentage of animals that showed clinical signs of arthritis,"[1]; 20 mg/kg PO twice a week, study Day 18",22%
same,mean clinical score for all paws (arthritis scores),"[1]; 20 mg/kg or 40 mg/kg PO, compared to vehicle",reduced arthritis scores
same,percentage of animals that showed clinical signs of arthritis,"[1]; 40 mg/kg PO twice a week, study Day 6 (start of treatment)",88%
same,percentage of animals that showed clinical signs of arthritis,"[1]; 40 mg/kg PO twice a week, study Day 18",13%
same,spheroid cell growth,U87MG spheroids,significant reduction in cell growth
same,spheroid cell growth,U251MG spheroids,shrinking of the spheroid with complete elimination of any cell growth out of the sphere
same,protein expression of XPO1,XPO1,degraded XPO1 in a dose-dependent manner
same,mean tumor volume,MOLT 4 xenograft,mean tumor volume was reduced
same,"Rev-GFP localization, mutant CRM1-Cys528Ser co-expressed",mutant CRM1-Cys528Ser,did not induce nuclear localization of Rev-GFP
same,"Rev-GFP localization, wild-type CRM1 co-expressed",wild-type CRM1,Rev-GFP was localized to the cell nucleus and nucleolus
